Experiments:
human SIRT5 = biological target: T1, human SIRT5 (Homo sapiens, UniProt Q9NXA8); assay: PncA/GDH-coupled deacylation assay, SIRT5 activation (CPS1-succK537 substrate); type: biochemical; conditions: for effect on SIRT5: 10 μM compound; for SIRT5 activation: 100 μM compound
T1 construct: pET151D/Topo (Sirt3-114-380 and Sirt5-34-302); His tag (N, cleaved yes); made in house; host or cells: Escherichia coli
T1 sequence (Q9NXA8 34-302): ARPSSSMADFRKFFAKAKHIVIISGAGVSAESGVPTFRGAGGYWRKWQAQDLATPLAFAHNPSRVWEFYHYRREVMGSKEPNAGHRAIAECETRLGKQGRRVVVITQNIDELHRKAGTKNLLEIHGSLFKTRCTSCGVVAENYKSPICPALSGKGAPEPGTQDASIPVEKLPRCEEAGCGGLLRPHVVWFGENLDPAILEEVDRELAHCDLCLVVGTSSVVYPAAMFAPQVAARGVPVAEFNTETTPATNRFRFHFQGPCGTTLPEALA
Description: To avoid artifacts and other non-specific effects, instead of the “Fluor-de-Lys” (FdL) substrate, we used a PncA/GDH-coupled deacylation assay by measuring the NADPH oxidation to NADP^+ that relies on isoform-specific non-modified physiological acetyl or succinyl substrates [p53-acK381 for SIRT1, α-tubulin-[…] for SIRT2, acetyl-CoA synthetase 2 (ACS2)-acK642 for SIRT3, and CPS1-succK537 for SIRT5].[59] The assays were carried out using the 1,4-DHP derivatives 2a–n and 3a–d against SIRT3, including the prototype compounds 2 and 3 as positive controls.
N-terminally his-tagged human sirtuins were expressed in Escherichia coli using constructs in pET15b (Sirt1) or pET151D/Topo (Sirt3-114-380 and Sirt5-34-302).[4],[59],[61] Sirt2-43-356 was expressed from a modified pET19b containing a TEV protease cleavage site and an N-terminal SUMO-tag.[59],[79] Proteins were expressed and purified as described elsewhere.[59],[61],[79]−[81] In brief, proteins were expressed in E. coli, crude extracts were cleared by centrifugation, and the proteins were affinity purified using NiNTA beads.
Sirtuin deacylation activities were analyzed by using a coupled enzymatic assay as described in.[59],[82] For initial modulation screenings, substrate peptide specificity analysis, and compound titrations, 1.5 μM sirtuin was incubated with 50 μM substrate peptide and 100 μM NAD^+ in absence or presence of 10 μM, 100 μM or the indicated concentration of 1,4-DHP at a final DMSO concentration of 5%. For kinetic experiments, 1.5 μM sirtuin was incubated with saturating concentrations of either substrate peptide (0.4 mM) or NAD^+ (2 mM), with the second substrate’s concentration being varied in absence or presence of 200 μM 1,4-DHP at a final concentration of 5% DMSO. Potential 1,4-DHP effects on the coupled enzymes GDH and nicotinamidase were tested in control assays containing 50 μM NAM instead of the substrate peptide.

[1] = tested on: HIF-1α, EPAS-1, and CA-IX protein expression in CAL-62; assay: Western blot of HIF-1α, EPAS-1 and CA-IX in CAL-62 cells under hypoxia; type: cell-based; conditions: CAL-62, 50 μM, 48 h, hypoxia
Description: (§1) Based on these findings, we decided to assess the ability of the SIRT3 activators 3a–d to impair HIF-1α, EPAS-1, and CA-IX protein expression in CAL-62 (Figure 10A–F) and MDA-MB-231 (Figure 11A–F) cell lines treated with the compounds at 50 μM for 48 h and under hypoxia conditions.
(§2) Breast cancer cell line MDA-MB-231, anaplastic thyroid cancer cell line CAL-62 and human keratinocytes HaCaT were purchased from ATCC and were cultured in RPMI 1640 medium (R0883 Sigma Aldrich-MERCK) (MDA-MB-231 and CAL-62) or DMEM medium (11965092, Gibco) supplemented with 10% fetal bovine serum (Sigma-Aldrich-MERCK, F9665), 2 mM glutamine (G7513; Sigma-Aldrich-MERCK), 100 units/mL penicillin and 0.1 mg/mL streptomycin (P0781; Sigma-Aldrich-MERCK). Adherent cells were detached by Trypsin–EDTA solution (TA049; Sigma-Aldrich-MERCK). Cells were maintained at 37 °C in humidified incubator with 5% CO2. Cells were treated with […] (CoCl2) (Merck; C8661) dissolved in distilled, sterile water for 24 h to induce hypoxia (200 μM). Hypoxic and normoxic cells were also treated with 10/50 μM of the indicated compounds (dissolved in DMSO) for 48 h, maintaining the CoCl2 in the culture medium for hypoxic conditions. SIRT3 inhibitor 3-TYP was dissolved in DMSO and added to a final concentration of 1 μM for 24 and/or 48 h.
(§3) The following antibodies were used in this study: ACTB (Merck; A5316), HIF1-α (Cell Signaling; 14179), HIF2/EPAS-1 (Santa Cruz Biotechnology sc-13596), HXKII (Santa Cruz Biotechnology sc-6521), CAIX (Novus Biotechnology NB100-417), SIRT3 (Cell Signaling; 2627S), MnSOD (Abcam ab13533), MnSOD K68 (Abcam ab137037), MnSOD K122 (Abcam ab214675), peroxidase-conjugated AffiniPure Goat Anti-Rabbit IgG (H + L) (Jackson ImmunoResearch; 111-035-003), and peroxidase-conjugated AffiniPure Goat Anti-Mouse IgG (H + L) (Jackson ImmunoResearch; 115-035-062).
(§4) Treated and untreated cells were collected and centrifuged at 3000 rpm for 5 min. After removing the supernatant, cells were lysed in 70 μL of lysis buffer containing: 50 mM Tris-Cl (Merck; 93352), 250 mM sodium chloride (NaCl, Merck; S7653), 5 mM ethylenediaminetetraacetic acid (EDTA; Merck; E6758), 0.1% Triton X-100 and 0.1 mM dithiothreitol (Merck; D9163) plus 1 mM phenylmethylsulfonyl fluoride (PMSF, Merck; 93482), protease inhibitor cocktail (PI; Merck; P8340), 1 mM sodium orthovanadate (NA3VO4, Merck; S6508), and 10 mM sodium fluoride (NaF, Merck; 201154) (lysis buffer). After 30 min on ice, samples were centrifuged at 13,000 rpm for 10 min at 4 °C, and the supernatants collected. Protein concentration was determined by the Bradford assay (Bio-Rad; 500-0205). The equivalent of 15 or 50 μg of protein was boiled for 5 min, electrophoresed onto denaturing SDS-PAGE gel, and transferred onto a […] nitrocellulose membrane (Bio-Rad; 162-0115). After blocking with 5% milk, membranes were incubated with the appropriate primary antibody overnight. The next day, after three washes with 0.1% Tween 20 (Merck; P9416) in PBS (PBST) for 30 min at rt, membranes were incubated with the appropriate secondary antibody for 1 h at rt. After three more washes in PBST, the detection of the relevant protein was assessed by enhanced chemiluminescence (Lite Ablot TURBO, Euro-Clone; EMP012001). Densitometric analysis of the bands, relative to ACTB, was performed using ImageJ Software v1.51 (NIH, Bethesda, MD, USA).

[2] = tested on: HIF-1α, EPAS-1, and CA-IX protein expression in MDA-MB-231; assay: Western blot of HIF-1α, EPAS-1 and CA-IX in MDA-MB-231 cells under hypoxia; type: cell-based, human; conditions: MDA-MB-231, 50 μM, 48 h, hypoxia
Description: as §1, §2, §3, §4

SMILES | effect on SIRT5 (human SIRT5) | SIRT5 activation (human SIRT5) [%] | CA-IX protein expression [1] | EPAS-1 protein levels [2] | HIF-1α protein levels [2] | EPAS-1 protein expression [1] | CA-IX protein expression [2] | HIF-1α protein expression [1]
CCOC(=O)C1=CN(C(=O)c2cccc(OC)c2)C=C(C(=O)OCC)C1c1ccccc1 [Compound 3a, Diethyl 1-(3-methoxybenzoyl)-4-phenyl-1,4-dihydropyridine-3,5-dicarboxylate] | negligible effects | 144 | significantly downregulated | – | – | – | – | –
CCOC(=O)C1=CN(C(=O)c2ccc(OC)c(OC)c2)C=C(C(=O)OCC)C1c1ccccc1 [Compound 3c, Diethyl 1-(3,4-dimethoxybenzoyl)-4-phenyl-1,4-dihydropyridine-3,5-dicarboxylate] | negligible effects | 160 | – | significantly reduced | significantly reduced | downregulated | – | –
CCOC(=O)C1=CN(C(=O)c2cc(OC)cc(OC)c2)C=C(C(=O)OCC)C1c1ccccc1 [Compound 3d, Diethyl 1-(3,5-dimethoxybenzoyl)-4-phenyl-1,4-dihydropyridine-3,5-dicarboxylate] | negligible effects | – | significantly downregulated | significantly reduced | significantly reduced | downregulated | most potent | decrease

— article PMC10388363, “Novel 1,4-Dihydropyridines as Specific Binders and Activators of SIRT3 Impair Cell Viability and Clonogenicity and Downregulate Hypoxia-Induced Targets in Cancer Cells” (Journal of Medicinal Chemistry, 2023)
